# Assays:
# Experiment in all cases: relative viability (nuclei count vs DMSO), 5 days (fraction); higher = more cells survive
# GW-2580 + Linsitinib = compound: COC1=CC=C(C=C1)COC2=C(C=C(C=C2)CC3=CN=C(N=C3N)N)OC [GW-2580] + C[C@]1(O)C[C@@H](c2nc(-c3ccc4ccc(-c5ccccc5)nc4c3)c3c(N)nccn32)C1 [Linsitinib] (partner 1 µM)
# Procedure, shortened: (§1)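 Cells from lung cancer lines were seeded into 1536-well plates and, one day later, dosed by pin tool. Treatments were either a single drug or a fixed dose of an anchor drug with five library-drug doses (not always all listed) in √10 steps. After 5 days, nuclei were stained in a one-step fixation (final 0.05% Triton X-100, 1% formaldehyde, 1 ug/ml Hoechst) and counted on 4× images, and relative viability is the treated-to-vehicle nuclei ratio, as the median of duplicate plates.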
# Fedratinib + Navitoclax = compound: Cc1cnc(Nc2ccc(OCCN3CCCC3)cc2)nc1Nc1cccc(S(=O)(=O)NC(C)(C)C)c1 [Fedratinib] + CC1(C)CCC(c2ccc(Cl)cc2)=C(CN2CCN(c3ccc(C(=O)NS(=O)(=O)c4ccc(N[C@H](CCN5CCOCC5)CSc5ccccc5)c(S(=O)(=O)C(F)(F)F)c4)cc3)CC2)C1 [Navitoclax] (partner 0.5 µM)
# Procedure, shortened: as §1
# Fedratinib + Decitabine = compound: Cc1cnc(Nc2ccc(OCCN3CCCC3)cc2)nc1Nc1cccc(S(=O)(=O)NC(C)(C)C)c1 [Fedratinib] + Nc1ncn([C@H]2C[C@H](O)[C@@H](CO)O2)c(=O)n1 [Decitabine] (partner 2 µM)
# Procedure, shortened: as §1
# GW-2580 + Crizotinib = compound: COC1=CC=C(C=C1)COC2=C(C=C(C=C2)CC3=CN=C(N=C3N)N)OC [GW-2580] + C[C@@H](Oc1cc(-c2cnn(C3CCNCC3)c2)cnc1N)c1c(Cl)ccc(F)c1Cl [Crizotinib] (partner 1 µM)
# Procedure, shortened: as §1
# Fedratinib + Palbociclib = compound: Cc1cnc(Nc2ccc(OCCN3CCCC3)cc2)nc1Nc1cccc(S(=O)(=O)NC(C)(C)C)c1 [Fedratinib] + CC(=O)c1c(C)c2cnc(Nc3ccc(N4CCNCC4)cn3)nc2n(C2CCCC2)c1=O [Palbociclib] (partner 0.5 µM)
# Procedure, shortened: as §1
Cell Line,relative viability (GW-2580 + Linsitinib; first compound 0.08 µM),relative viability (GW-2580 + Linsitinib; first compound 0.8 µM),relative viability (GW-2580 + Linsitinib; first compound 2.53 µM),relative viability (GW-2580 + Linsitinib; first compound 8 µM),relative viability (Fedratinib + Navitoclax; first compound 0.1 µM),relative viability (Fedratinib + Navitoclax; first compound 0.3162 µM),relative viability (Fedratinib + Navitoclax; first compound 1 µM),relative viability (Fedratinib + Decitabine; first compound 0.1 µM),relative viability (Fedratinib + Decitabine; first compound 0.3162 µM),relative viability (Fedratinib + Decitabine; first compound 1 µM),relative viability (GW-2580 + Crizotinib; first compound 0.08 µM),relative viability (GW-2580 + Crizotinib; first compound 0.8 µM),relative viability (GW-2580 + Crizotinib; first compound 2.53 µM),relative viability (GW-2580 + Crizotinib; first compound 8 µM),relative viability (Fedratinib + Palbociclib; first compound 0.1 µM),relative viability (Fedratinib + Palbociclib; first compound 0.3162 µM),relative viability (Fedratinib + Palbociclib; first compound 1 µM)
LU99A,0.749,0.57,0.427,0.517,0.824,0.834,0.666,0.936,0.968,0.892,0.662,0.633,0.524,0.535,0.469,0.382,0.392
LXF-289,1.02,0.992,0.997,0.858,0.925,0.875,0.939,0.36,0.338,0.378,0.846,0.818,0.775,0.705,0.611,0.559,0.558
NCI-H23,0.728,0.626,0.524,0.517,0.87,0.75,0.73,0.322,0.338,0.324,0.431,0.508,0.506,0.362,0.555,0.497,0.4
NCI-H322M,1.01,0.958,0.857,1.05,1.16,1.18,1.23,0.657,0.749,0.64,0.982,0.969,0.994,0.862,0.487,0.473,0.454
NCI-H441,0.425,0.763,0.351,0.625,0.534,0.341,0.574,0.223,0.218,0.233,0.873,0.736,0.572,0.795,0.195,0.176,0.204
NCI-H460,1.04,1.17,0.604,0.795,1.05,1.03,0.969,0.556,0.495,0.232,1.07,1.14,0.819,0.839,0.163,0.142,0.06
NCI-H520,1.03,1.18,1.16,0.985,1.13,1.07,0.983,0.557,0.454,0.532,0.791,0.956,0.763,0.621,0.149,0.214,0.164
NCI-H647,1.39,1.39,1.09,1.33,1.14,1.2,0.97,0.581,0.327,0.372,1.28,1.47,1.05,0.957,0.346,0.362,0.364
NCI-H727,0.241,0.298,0.226,0.284,0.381,0.346,0.213,0.864,0.792,0.874,0.85,0.819,0.79,0.5,0.483,0.652,0.624
NCI-H838,1.14,1.19,1.01,1.06,1.11,1.17,1.06,0.444,0.454,0.431,0.946,0.904,0.779,0.8,0.197,0.228,0.164
NCI-H1355,0.823,0.884,0.694,0.809,0.796,0.973,0.949,0.344,0.353,0.356,1.24,1.12,0.946,1.01,0.412,0.396,0.385
NCI-H1437,1.08,1.3,0.942,0.728,1.14,1.02,0.988,0.603,0.583,0.6,1.01,1.01,0.828,0.77,0.264,0.308,0.293
NCI-H1651,1.06,1.04,1,0.982,0.914,0.958,1.07,0.365,0.629,0.618,0.917,0.952,0.813,0.874,0.49,0.485,0.508
NCI-H1666,0.765,1.02,0.742,0.724,0.877,0.96,0.946,0.638,0.746,0.7,1.01,0.984,1.17,0.926,0.636,0.657,0.629
NCI-H1734,0.899,0.839,0.895,0.911,0.852,0.865,0.828,0.444,0.399,0.529,0.66,0.74,0.656,0.509,0.415,0.344,0.334
NCI-H1755,1.05,1.17,0.955,0.761,1,0.972,0.894,0.662,0.723,0.664,0.852,1.03,0.818,0.71,0.438,0.462,0.413
NCI-H1792,0.684,0.569,0.263,0.592,0.653,0.58,0.59,0.429,0.438,0.504,1.03,1.13,0.733,1.13,0.684,0.622,0.611
NCI-H1915,1.2,1.13,1.1,1.11,0.747,0.726,0.761,0.266,0.258,0.247,0.896,1.14,1.03,0.905,0.505,0.498,0.422

Cell Line,relative viability (GW-2580 + Linsitinib; first compound 0.08 µM),relative viability (GW-2580 + Linsitinib; first compound 0.8 µM),relative viability (GW-2580 + Linsitinib; first compound 2.53 µM),relative viability (GW-2580 + Linsitinib; first compound 8 µM),relative viability (Fedratinib + Navitoclax; first compound 0.1 µM),relative viability (Fedratinib + Navitoclax; first compound 0.3162 µM),relative viability (Fedratinib + Navitoclax; first compound 1 µM),relative viability (Fedratinib + Decitabine; first compound 0.1 µM),relative viability (Fedratinib + Decitabine; first compound 0.3162 µM),relative viability (Fedratinib + Decitabine; first compound 1 µM),relative viability (GW-2580 + Crizotinib; first compound 0.08 µM),relative viability (GW-2580 + Crizotinib; first compound 0.8 µM),relative viability (GW-2580 + Crizotinib; first compound 2.53 µM),relative viability (GW-2580 + Crizotinib; first compound 8 µM),relative viability (Fedratinib + Palbociclib; first compound 0.1 µM),relative viability (Fedratinib + Palbociclib; first compound 0.3162 µM),relative viability (Fedratinib + Palbociclib; first compound 1 µM)
NCI-H1944,1.32,1.4,1.27,1.07,1.04,1.07,1.03,0.435,0.451,0.421,1.21,1.01,1.4,1.03,0.305,0.358,0.318
NCI-H1975,1.19,0.931,0.89,0.875,1.08,1.01,0.953,0.372,0.315,0.343,1,1.12,0.926,0.796,0.644,0.304,0.413
NCI-H1993,0.757,0.735,,0.714,0.75,0.869,0.903,0.473,0.725,0.704,0.971,0.828,,0.936,0.654,0.63,0.906
NCI-H2009,1.14,1.21,1.18,1.06,1.13,1.19,1.1,0.368,0.406,0.356,1.05,1.05,1.07,1.01,0.185,0.254,0.161
NCI-H2023,0.643,0.864,0.654,0.67,1.04,0.945,0.946,0.21,0.23,0.117,0.61,0.829,0.59,0.623,0.391,0.356,0.248
NCI-H2085,0.818,1.13,0.978,0.879,1.01,1.01,0.883,0.53,0.563,0.518,0.903,0.918,0.779,0.758,0.447,0.483,0.423
NCI-H2087,1.08,0.935,0.924,0.818,0.928,0.962,1,0.206,0.242,0.219,0.8,0.993,1,0.772,0.23,0.24,0.258
NCI-H2126,0.739,0.731,0.653,0.743,0.852,0.831,0.86,0.532,0.596,0.605,1.06,1.06,1.01,1.04,0.319,0.339,0.369
NCI-H2347,0.996,0.864,0.954,0.884,0.675,0.823,0.733,0.637,0.631,0.647,0.733,0.702,0.603,0.736,0.37,0.426,0.391
NCI-H2405,0.979,0.85,0.886,0.861,0.583,0.895,0.506,0.729,0.725,0.663,0.827,0.885,0.753,0.78,0.486,0.536,0.463
NCI-H3122,0.993,1.13,1.16,1.05,1.01,0.964,1.01,0.392,0.417,0.403,0.286,0.309,0.247,0.238,0.199,0.184,0.159
PC-3 [JPC-3],0.96,0.995,0.966,0.967,0.856,0.804,0.782,0.717,0.827,0.75,0.985,1.08,0.98,0.945,0.481,0.523,0.542
PC-14,1.12,0.987,0.934,1.03,1.16,1.08,0.989,0.193,0.23,0.094,0.949,1.04,0.907,0.899,0.592,0.58,0.402
RERF-LC-KJ,0.946,0.939,0.816,0.815,0.913,0.948,1.07,0.64,0.635,0.277,0.818,0.915,0.778,0.76,1.01,1.05,1.02
SK-LU-1,1.39,1.23,1.04,1.16,,0.917,0.611,0.614,0.599,0.615,1,1.08,0.798,1.06,0.393,0.317,0.34
SK-MES-1,1.12,1.14,1.01,1.09,1.39,1.19,1.07,0.394,0.409,0.241,1.01,1.04,0.871,1,0.339,0.32,0.271
SW 1573,0.744,0.806,0.713,0.66,0.984,1,0.927,0.524,0.577,0.105,0.73,0.764,0.803,0.643,0.41,0.373,0.302
